The record followed here is patent US6133273A, “Pyrazolopyrimidine-2,4-dione sulfonamides” (American Home Products Corporation, priority 1999, dated 2000).

The subject of data set [1] is promoter region of the human calcitonin gene (luciferase reporter, C1-3 cells). The experiment in a line: Calcitonin/Luciferase Reporter Gene Expression Assay. Conditions: for fold induction at 30 µM: read-out: TAR (transcription activation ratio).
Experimental: This assay was used to determine the ability of a compound to stimulate transcription of a luciferase reporter gene regulated by 3 kb of the promoter region of the human calcitonin gene.
C1-3 cells were plated at a density of 6,500-7,500 cells per well in a 96-plate microtiter plate. Twenty-four to forty-eight hours later, compounds were added to the wells in triplicate. Compounds were tested at a concentration of 10 μg/mL in 0.5% DMSO.
The production of light is measured on a luminometer.
TAR Ratio: Stimulation of calcitonin promoter-dependent transcription is expressed as a ratio of luciferase activity (LUCI) in the presence of test compound compared to the LUCI activity in the untreated control: [formula]
The subject of the next data set is PDE-IV. Briefly: Inhibition of Phosphodiesterase IV (PDE-IV) isolated from human U937 cells. In kind it is biochemical. The settings on record: U937 cell PDE-IV, 1 μM [3H]-cAMP, 37° C., test compound 0.001 μM to 10 μM. On the procedure: This assay was used to biochemically assess the ability of a test compound to inhibit PDE-IV isolated from a U937 cell line, where PDE-IV refers to the cGMP-insensitive, cAMP-selective PDE.
Cell Culture: U937 cells were grown in RPMI 1640 medium supplemented with 10% heat-inactivated fetal calf serum and Penicillin/Streptomycin (100 units/100 μg per mL) in a humidified 5% CO2 atmosphere at 37° C. Starter cells were maintained in continuous logarithmic growth by seeding them in 75 cm^2 vented tissue culture flasks at a concentration of 3×10^4 cells/mL and passing them every 3-4 days when the cells reached approximately 8×10^5 cells/mL. For experiments, 3-4 day starter cells were seeded in 225 cm^2 flasks at 1×10^5 cells/mL and harvested 3-4 days later at approx. 6×10^5 cells/mL.
Isolation of PDE-IV: U937 cells were activated with 10 μM dibutyryl cAMP for a period of 4 hours (to up-regulate PDE-IV) and then harvested by centrifugation at 1200×g for 10 min in 250 mL conical centrifuge tubes. The pellet from each 200 mL flask was resuspended in 5 mL buffer A [10 mM Tris-HCl, 5 mM MgCl2, 4 mM EGTA, 5 mM 2-mercaptoethanol, 1 μM leupeptin, 1 μM pepstatin A, and 5 μM phenylmethyl sulfonyl fluoride (PMSF) (pH 7.8)], and the cells were lysed using 3 cycles of freezing (3 min in dry ice/acetone) followed by thawing (warm water). […] To determine which families of PDEs were present, fractions may be assayed for hydrolytic activity with 1 μM [^3 H]-cAMP or 1 μM [^3 H]-cGMP. Additionally, 1 μM [^3 H]-cAMP assays were conducted in the presence of 10 μM rolipram, 10 μM cGMP, or calmodulin (1 unit/0.4 mL plus 10 μM CaCl2).
When prepared in this manner, approximately 80% of total cAMP PDE activity is eluted by Buffer B containing 0.7 M sodium acetate. This PDE activity consists of>90% PDE-IV (as evidenced by its susceptibility to inhibition by rolipram.
PDE assay: PDE activity was measured using a modification of the radioisotope procedure previously described by Thompson et al. (Thompson, W. J., Terasaki, W. L., Epstein, P. M. and Strada, S. J. Adv, Cyclic Nucleotide Res. 1979, 10, 69). Reaction mixtures (0.4 mL) contain 40 mM Tris-HCl (pH 7.8), 4 mM 2-mercaptoethanol, 5 mM MgCl2, 0.1 μM leupeptin, 0.1 μM pepstatin A, 0.1 μM PMSF, 1 μM [3H]-cAMP or 1 μM [^3 H]-cGMP (~200,000 DPM), and enzyme to initiate the reaction. ^3 H-cAMP substrate was prepared as follows: A stock solution of ^3 H-cyclic nucleotide (1000 μCi/mL) was diluted 1:10 in 50% EtOH. 200 μl of this diluted stock solution was added to a cold (unlabeled) cyclic nucleotide solution, made at a concentration of 4 μM. 100 μl of this solution was used per assay tube to achieve a final concentration of 1 μM cyclic nucleotide per assay tube (200,000 DPM). Enzyme activity was determined at 37° C. Reactions were terminated by boiling, incubating with snake venom, and cooling as previously described (Thompson et al., 1979). The reaction mixture was applied to a (0.8×8.5 cm) column containing 0.4 g Dowex I-X8 affinity resin; reaction tubes were rinsed with 0.5 mL of methanol; and this, along with an extra 1 mL of methanol, was applied to the column to elute the ^3 H-reaction products. After all liquid has passed through the column, the column was plunged with a 12 cc syringe plunger. Each column's eluate was collected in a 20 mL scintillation vial containing 10 mL aquasol-2 and counted by scintillation spectrophotometry. [^3 H]-adenosine or [^3 H]-guanosine recovery was corrected for background DPM determined in the absence of enzyme. The amount of enzyme and duration of assay were adjusted to ensure that less than 25% of the substrate was consumed under these conditions.
Measurements: Inhibition by a test compound was measured as a percent reduction of total PDE activity, and calculated as follows: [formula] where A is the PDE activity (mean DPM-background DPM) in the presence of test compound, and B is the total PDE-IV activity (mean DPM-background DPM) in the absence of test compound. […]

The subject of data set [2] is C1-3 cell line (calcitonin secretion). Briefly: Calcitonin Secretion/RIA Assay. The format is cell-based, human. The settings on record: active if >2.5; for fold induction at 30 µM: Homo sapiens, C13, ratio of calcitonin secretion vs untreated control. On the procedure:
Cell Line: C1-3 (Parent Cell Line: TT-medullary thyroid carcinoma),
Reagent A--(Anti-Calcitonin)
Regent C--(Anti-Goat Precipitant)
Regent D--(Zero Standard).
Reagents E-I--(Calcitonin Standards)
Reagents J-K (Calcitonin Controls: Level and Level 2)
1. Glass tubes were labeled to include Total Count (TC), Nonspecific Binding (NSB), Maximum Binding (Bo), Standards, Controls and Patient Sera in duplicate.
2. […] of Standard Zero (Reagent D) was added to tubes 3 through 6 (NSB and Bo).
3. […] of Standards* (Reagents E-1) was added to tubes 7-16 as follows:
4. […] of Patient Serum 1 was added to tubes 21 and 22, Patient Serum 2 was added to tubes 23 and 24, etc.
5. […] of Reagent L (NSB Buffer) was added to tubes 3 and 4.
6. […] of Reagent A (Anti-Calcitonin) was added to all tubes except tubes 1 & 2 (TC) and tube 3 & 4 (NSB). All tubes were vortexed, covered with parafilm or foil and incubated 44±6 hours at 2-8° C.
7. […] All tubes were vortexed, covered with parafilm or foil and incubated 22±3 hours at 2-8° C.
8. Reagent C (Anti-Goat Precipitant) was mixed gently but thoroughly by inverting the vial several times before use. 1 mL Reagent C was added to all tubes except 1 and 2 (TC). Tubes were vortexed and incubated 20 minutes at room temperature.
9. All tubes were centrifuged at 1300-1500×g for 15 minutes at 2-8° C.
10. Supernatant was decanted immediately after centrifugation taking care to leave the precipitate intact.
11. Tubes were counted 4 minutes or longer.
Secretion Ratio: Stimulation of calcitonin secretion is expressed as a ratio of secretion activity in the presence of test compound compared to the secretion activity in the untreated control: [formula]

In the case of “4,6-Dibutyl-1-(propane-1-sulfonyl)-1,4-dihydro-pyrazolo[4,3-d]pyrimidine-5,7-dione [Example 9]”, the “TAR (transcription activation ratio)” value in data set [1] (30 μM, ratio of luciferase activity vs untreated control, active if TAR>1.5) was 1.47. Further, the “% Inhibition of PDE IV (normalized to rolipram)” value in the data set on PDE-IV amounted to 27%. Moreover, the “Secretion Ratio” value in data set [2] (30 μM, ratio of calcitonin secretion vs untreated control) was 2.71.

Regarding `CCCCn1c(=O)c2nn(S(=O)(=O)CCCCl)cc2n(CCCC)c1=O` [Example 1, 4,6-Dibutyl-3-chloropropanesulfonyl-2,4-dihydro-pyrazolo[4,3-d]pyrimidine-5,7-dione], the fold induction at 30 µM in data set [1] (Homo sapiens, C13, 12 h) was 1.34; in data set [2], 4.35.

On to `CCCCn1c(=O)c2nn(S(=O)(=O)Cc3ccccc3)cc2n(CCCC)c1=O` [Example 2, 4,6-Dibutyl-2-phenylmethanesulfonyl-2,4-dihydro-pyrazolo[4,3-d]pyrimidine-5,7-dione], for which the fold induction at 30 µM amounted to 1.51 in data set [1] (Homo sapiens, C13, 12 h) and 2.55 in data set [2]. In addition, in the data set with PDE-IV, the “% Inhibition of PDE IV (normalized to rolipram)” value came out at 35%.

In the case of `CCCCn1c(=O)c2nn(S(=O)(=O)c3cccc(C(F)(F)F)c3)cc2n(CCCC)c1=O` [Example 3, 4,6-Dibutyl-2-(3-trifluoromethyl-benzenesulfonyl)-2,4-dihydro-pyrazolo[4,3-d]pyrimidine-5,7-dione], the fold induction at 30 µM in data set [1] (Homo sapiens, C13, 12 h) came out at 1.79; in data set [2], 3.79. The “% Inhibition of PDE IV (normalized to rolipram)” value in the data set on PDE-IV stood at 68%.

Turning to `Nc1ncnc2c1nc(Sc1ccc(Cl)cc1)n2[C@@H]1O[C@@H]2COP(=O)(O)O[C@H]2[C@H]1O` [Example 8-CPT-cAMP, 8-CPT-cAMP, reference compound], the fold induction at 1000 µM in data set [1] (Homo sapiens, C13, 12 h, read-out: fold induction of luciferase (control stimulation)) lay within 2 to 3.

Turning to `CCCCn1c(=O)c2nn(S(=O)(=O)c3c(Cl)cc(Cl)cc3Cl)cc2n(CCCC)c1=O` [Example 11, 4,6-Dibutyl-2-(2,4,6-trichloro-benzenesulfonyl)-2,4-dihydro-pyrazolo[4,3-d]pyrimidine-5,7-dione], the fold induction at 30 µM in data set [1] (Homo sapiens, C13, 12 h) came out at 1.76; in data set [2] it was 4.31. Further, the “% Inhibition of PDE IV (normalized to rolipram)” value with PDE-IV turned out to be 26%.

For the molecule `CCCCn1c(=O)c2nn(S(=O)(=O)c3cccc4cccnc34)cc2n(CCCC)c1=O` [Example 12, 4,6-Dibutyl-2-(quinoline-8-sulfonyl)-2,4-dihydro-pyrazolo[4,3-d]pyrimidine-5,7-dione], the fold induction at 30 µM was found to be 2.22 in data set [1] (Homo sapiens, C13, 12 h) and 3.83 in data set [2]. In addition, the “% Inhibition of PDE IV (normalized to rolipram)” value in the data set on PDE-IV amounted to 41%.

As to `CCCCn1c(=O)c2cn(S(=O)(=O)CCCCl)nc2n(CCCC)c1=O` [Example 13, 5,7-Dibutyl-2-(3-chloro-propane-1-sulfonyl)-2,7-dihydro-pyrazolo[3,4-d]pyrimidine-4,6-dione], the fold induction at 30 µM in data set [1] (Homo sapiens, C13, 12 h) was 1.91; in data set [2], 2.71. In addition, the “% Inhibition of PDE IV (normalized to rolipram)” value in the data set with PDE-IV is listed as 34%.

In the case of `CCCCn1c(=O)c2cn(S(=O)(=O)c3ccc(OC(F)(F)F)cc3)nc2n(CCCC)c1=O` [Example 14, 5,7-Dibutyl-2-(4-trifluoromethoxy-benzenesulfonyl)-2,7-dihydro-pyrazolo[3,4-d]pyrimidine-4,6-dione], the fold induction at 30 µM came to 2.22 in data set [1] (Homo sapiens, C13, 12 h) and 4.29 in data set [2]. For the same molecule, in the data set with PDE-IV, the “% Inhibition of PDE IV (normalized to rolipram)” value worked out at 92%.

As to `CCCCn1c(=O)c2cn(S(=O)(=O)c3cc(Cl)c(Cl)s3)nc2n(CCCC)c1=O` [Example 15, 5,7-Dibutyl-2-(4,5-dichloro-thiophene-2-sulfonyl)-2,7-dihydro-pyrazolo[3,4-d]pyrimidine-4,6-dione], the fold induction at 30 µM is 2.93 in data set [1] (Homo sapiens, C13, 12 h) and 3.67 in data set [2]. Besides, the “% Inhibition of PDE IV (normalized to rolipram)” value with PDE-IV is reported as 59%.

For `CCCCn1c(=O)c2cn(S(=O)(=O)c3ccc(C(F)(F)F)cc3)nc2n(CCCC)c1=O` [Example 16, 5,7-Dibutyl-2-(4-trifluoromethyl-benzenesulfonyl)-2,7-dihydro-pyrazolo[3,4-d]pyrimidine-4,6-dione], the fold induction at 30 µM in data set [1] (Homo sapiens, C13, 12 h) worked out at 2.61; in data set [2] it was 3.86. For the same molecule, the “% Inhibition of PDE IV (normalized to rolipram)” value in the data set on PDE-IV was found to be 62%.

`CCCCn1c(=O)c2cn(S(C)(=O)=O)nc2n(CCCC)c1=O` [Example 17, 5,7-Dibutyl-2-methanesulfonyl-2,7-dihydro-pyrazolo[3,4-d]pyrimidine-4,6-dione]: the fold induction at 30 µM was 1.95 in data set [1] (Homo sapiens, C13, 12 h) and 3.93 in data set [2]. In the data set with PDE-IV, the “% Inhibition of PDE IV (normalized to rolipram)” value is given as 17%.

Regarding `CCCCn1c(=O)n(C)c(=O)c2nn(S(=O)(=O)CCCCl)cc21` [Example 18, 4-Butyl-2-(3-chloro-propane-1-sulfonyl)-6-methyl-2,4-dihydro-pyrazolo[4,3-d]pyrimidine-5,7-dione], the fold induction at 30 µM in data set [1] (Homo sapiens, C13, 12 h) came out at 1.1; in data set [2], 1.38. The “% Inhibition of PDE IV (normalized to rolipram)” value with PDE-IV came out at 34%.

Consider `CCCCn1c(=O)c2cn(S(=O)(=O)Cc3ccccc3)nc2n(CCCC)c1=O` [Example 19, 5,7-Dibutyl-2-phenylmethanesulfonyl-1,7-dihydro-pyrazolo[3,4-d]pyrimidine-4,6-dione], for which the fold induction at 30 µM in data set [1] (Homo sapiens, C13, 12 h) came to 1.97; in data set [2], 3.43. In addition, the “% Inhibition of PDE IV (normalized to rolipram)” value in the data set with PDE-IV is recorded as 48%.

Take `CCCCn1c(=O)c2nn(S(=O)(=O)CCCCl)cc2n(CCC(C)C)c1=O` [Example 20, 6-Butyl-2-(3-chloro-propane-1-sulfonyl)-4-(3-methyl-butyl)-2,4-dihydro-pyrazolo[4,3-d]pyrimidine-5,7-dione]: the fold induction at 30 µM in data set [1] (Homo sapiens, C13, 12 h) worked out at 1.57; in data set [2] it was 2.25. Further, in the data set on PDE-IV, the “% Inhibition of PDE IV (normalized to rolipram)” value amounted to 42%.
